Measured values reported in PubChem BioAssay AID2060900 (Molecular Pharmacology Branch, DTP, NCI, 2025).

Tested on: 521955-158-R2-J5-PDC complex spheroids, viability
Experiment: Anticancer human tumor 521955-158-R2-J5-PDC patient-derived pancreatic carcinoma cell line growth inhibition [RAS]
Details: for IC50: curve of first compound; for viability, T/C: stronger effect = lower value
Excerpt: RAS pathway inhibitors in Combinations in Complex Spheroids
A high-throughput screen of multi-cell type tumor spheroids was designed to identify active combinations of RAS pathway inhibitors and targeted small molecules. Complex spheroids include a stromal component modeled by human endothelial cells (HUVEC) and fibroblasts modeled by human mesenchymal stem cells (MSCs). The concentration ranges selected for each drug and investigational agent were based upon clinically achievable concentrations if the clinical Cmax of the agent was known.
Compounds. The drugs and investigational agents: abemaciclib (NSC768073), cobimetinib (NSC768068), divarasib (GDC6063, NSC841802), docetaxel (NSC628503), GDC-1971 (RLY-1971, NSC841576), gemcitabine (NSC613327), inavolisib (NSC800729), ipatasertib (NSC767898), KB-0742 (NSC834161), MRTX-1133 (NSC836407), osimertinib (NSC779217), RMC-4630 (NSC839698), RMC-6236 (NSC851965), RMC-6291 (NSC852671), Ro-3306 (NSC812927), sapanisertib (NSC764658), SN-38 (NSC673596), staurosporine (NSC755774), SY5609 (NSC837396), and tovorafenib (DAY101, NSC766906), were obtained from the National Cancer Institute (NCI) Developmental Therapeutics Program Chemical Repository. The FDA-approved anticancer drug set is available from the NCI Developmental Therapeutics Program. […] The stock solutions were prepared in dimethyl sulfoxide (DMSO, Sigma-Aldrich, St. Louis, MO, cat. D2650) at 800-fold the tested concentration and stored at -70 degrees C prior to their use. All drugs and investigational agents were tested over a range starting from a high concentration at or near the clinical Cmax and decreasing in half-log increments. If the clinical Cmax for an agent had not been determined, the highest concentration tested was 10 microM.
Cell Culture. All cells were maintained in an incubator at 37 degrees C and 5% CO2 with 95% humidity. The PDC lines were cultured according to standard operating procedures established by the NCI PDMR. All PDCs were thawed and cultured in Matrigel-coated flasks prepared with a working solution of 1X Ham's F-12 nutrient mix, without supplementation (Invitrogen, Waltham, MA, cat. 11765054), 100 U/mL penicillin-streptomycin (Invitrogen, cat. 15140122), and 2.5% Matrigel (Corning Inc., Corning, NY, cat. 354248) for the first three passages. The 362531-283-R-J2-PDC and 782815-120-R-J1-PDC lines were cultured in 6C/Colon 1B media, which includes advanced DMEM/F-12 (Thermo Fisher Scientific, cat. 12634028), 10 mM HEPES (Thermo Fisher Scientific, cat. 15630080), 1X GlutaMAX supplement (Thermo Fisher Scientific, cat. 35050061), 0.1 mg/mL primocin (InvivoGen, San Diego, CA, cat. ant-pm-2), 10% defined fetal bovine serum, heat inactivated (HyClone Laboratories Inc., Logan, UT, cat. SH30070.03HI), 50% L-WRN conditioned media (ATCC, cat. CRL-3276), 1.25 mM N-Acetyl-L-cysteine (Sigma-Aldrich, cat. A9165), 10 mM nicotinamide (Sigma-Aldrich, cat. N0636), 1X B-27 supplement (Thermo Fisher Scientific, cat. 17504044), 1X N-2 supplement (Thermo Fisher Scientific, cat. 17502048), 50 ng/mL human EGF (Thermo Fisher Scientific, cat. PHG0311), and 10 microM Y-27632 dihydrochloride (Tocris Bioscience, cat. 1254). The K12877-001-R-J1-PDC line was cultured in 6I media, which includes all 6C/Colon 1B media plus 10 ng/mL human FGF-10 (PeproTech, cat. 100-26), 1 ng/mL human FGF-2 (PeproTech, cat. 100-18B), 1 µM prostaglandin E2 (Tocris Bioscience, cat. 2296), […] hydrocortisone (Sigma-Aldrich, cat. H4001), and […] bovine insulin (Sigma-Aldrich, cat. I6634). The K86415-001-R-J1-PDC line was cultured in 6D media, which includes all 6C/Colon 1B media components minus the L-WRN conditioned media. The 485176-168-R4-J1-PDC was cultured in PANC media, which includes all 6C/Colon 1B media plus 100 ng/mL human FGF-10 (PeproTech, cat. 100-26), 500 nM SB-431542 (Selleckchem, cat. S1067), and 10 nM gastrin (Tocris Bioscience, cat. 3006). […]

[1] = second compound 0.00316 µM, first compound 0.0316 µM
[2] = second compound 0.00316 µM, first compound 0.1 µM
[3] = second compound 0.00316 µM, first compound 0.316 µM
[4] = second compound 0.00316 µM, first compound 1 µM
[5] = second compound 0.01 µM, first compound 0.0316 µM
[6] = second compound 0.01 µM, first compound 0.1 µM
[7] = second compound 0.01 µM, first compound 0.316 µM
[8] = second compound 0.01 µM, first compound 1 µM
[9] = second compound 0.0316 µM, first compound 0.0316 µM
[10] = second compound 0.0316 µM, first compound 0.1 µM
[11] = second compound 0.0316 µM, first compound 0.316 µM
[12] = second compound 0.0316 µM, first compound 1 µM
[13] = second compound 0.1 µM, first compound 0.0316 µM
[14] = second compound 0.1 µM, first compound 0.1 µM
[15] = second compound 0.1 µM, first compound 0.316 µM
[16] = second compound 0.1 µM, first compound 1 µM
[17] = second compound 0.316 µM, first compound 0.0316 µM
[18] = second compound 0.316 µM, first compound 0.1 µM
[19] = second compound 0.316 µM, first compound 0.316 µM
[20] = second compound 0.316 µM, first compound 1 µM
[21] = second compound 1 µM, first compound 0.0316 µM
[22] = second compound 1 µM, first compound 0.1 µM
[23] = second compound 1 µM, first compound 0.316 µM
[24] = second compound 1 µM, first compound 1 µM
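Further: compound exposure lasted seven days before the viability read.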
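Wherever viability, T/C is given: spheroids also contain HUVEC endothelial cells and mesenchymal stem cells as stroma.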

Q: How did the IC50 (second compound 0.00316 µM) turn out when `CC(C)NCC(C(=O)N1CCN(c2ncnc3c2C(C)CC3O)CC1)c1ccc(Cl)cc1` (centres undefined) + C=CC(=O)N1CCN(c2nc(OCC3CCCN3C)nc3c(F)c(-c4nc(N)cc(C)c4C(F)(F)F)c(Cl)cc23)C(C)C1 was run?
A: The IC50 was > 10 µM.

Q: And the IC50 (second compound 0.01 µM)?
A: Its IC50 is > 10 µM.

Q: What about the IC50 (second compound 0.0316 µM) of the same molecule?
A: Its IC50 is > 10 µM.

Q: And the IC50 (second compound 0.1 µM)?
A: The IC50 was > 10 µM.

Q: And the IC50 (second compound 0.316 µM)?
A: Its IC50 is > 10 µM.

Q: What about the IC50 (second compound 1 µM) of the same molecule?
A: Its IC50 is > 10 µM.

Q: What about the viability, T/C [1] of the same molecule?
A: The viability, T/C was 95.9%.

Q: And the viability, T/C [2]?
A: Its viability, T/C is 93.2%.

Q: And the viability, T/C [3]?
A: Its viability, T/C is 99%.

Q: What about the viability, T/C [4] of the same molecule?
A: Its viability, T/C is 79.7%.

Q: And the viability, T/C (second compound 0.00316 µM, first compound 3.16 µM)?
A: Its viability, T/C is 66.4%.

Q: What about the viability, T/C (second compound 0.00316 µM, first compound 10 µM) of the same molecule?
A: The viability, T/C was 54.6%.

Q: And the viability, T/C [5]?
A: Its viability, T/C is 77%.

Q: And the viability, T/C [6]?
A: The viability, T/C was 115%.

Q: And the viability, T/C [7]?
A: The viability, T/C was 95.6%.

Q: And the viability, T/C [8]?
A: The viability, T/C was 92.9%.

Q: And the viability, T/C (second compound 0.01 µM, first compound 3.16 µM)?
A: Its viability, T/C is 69.1%.

Q: And the viability, T/C (second compound 0.01 µM, first compound 10 µM)?
A: Its viability, T/C is 55%.

Q: And the viability, T/C [9]?
A: Its viability, T/C is 84.1%.

Q: And the viability, T/C [10]?
A: Its viability, T/C is 101%.

Q: What about the viability, T/C [11] of the same molecule?
A: Its viability, T/C is 91.8%.

Q: What about the viability, T/C [12] of the same molecule?
A: Its viability, T/C is 94.7%.

Q: What about the viability, T/C (second compound 0.0316 µM, first compound 3.16 µM) of the same molecule?
A: Its viability, T/C is 61.2%.

Q: What about the viability, T/C (second compound 0.0316 µM, first compound 10 µM) of the same molecule?
A: Its viability, T/C is 55.1%.

Q: And the viability, T/C [13]?
A: Its viability, T/C is 88.7%.

Q: What about the viability, T/C [14] of the same molecule?
A: The viability, T/C was 104%.

Q: What about the viability, T/C [15] of the same molecule?
A: Its viability, T/C is 113%.

Q: What about the viability, T/C [16] of the same molecule?
A: Its viability, T/C is 89%.

Q: And the viability, T/C (second compound 0.1 µM, first compound 3.16 µM)?
A: The viability, T/C was 67.1%.

Q: What about the viability, T/C (second compound 0.1 µM, first compound 10 µM) of the same molecule?
A: The viability, T/C was 49.6%.

Q: And the viability, T/C [17]?
A: The viability, T/C was 105%.

Q: What about the viability, T/C [18] of the same molecule?
A: Its viability, T/C is 138%.

Q: And the viability, T/C [19]?
A: The viability, T/C was 92.4%.

Q: And the viability, T/C [20]?
A: Its viability, T/C is 72.1%.

Q: And the viability, T/C (second compound 0.316 µM, first compound 3.16 µM)?
A: Its viability, T/C is 59.6%.

Q: And the viability, T/C (second compound 0.316 µM, first compound 10 µM)?
A: The viability, T/C was 49.9%.

Q: And the viability, T/C [21]?
A: The viability, T/C was 103%.

Q: What about the viability, T/C [22] of the same molecule?
A: The viability, T/C was 80.2%.

Q: What about the viability, T/C [23] of the same molecule?
A: Its viability, T/C is 104%.

Q: What about the viability, T/C [24] of the same molecule?
A: The viability, T/C was 71.3%.

Q: And the viability, T/C (second compound 1 µM, first compound 3.16 µM)?
A: The viability, T/C was 61.9%.

Q: What about the viability, T/C (second compound 1 µM, first compound 10 µM) of the same molecule?
A: The viability, T/C was 55.3%.

Q: Which results are given for `CCN1CCN(Cc2ccc(Nc3ncc(F)c(-c4cc(F)c5nc(C)n(C(C)C)c5c4)n3)nc2)CC1` + C=CC(=O)N1CCN(c2nc(OCC3CCCN3C)nc3c(F)c(-c4nc(N)cc(C)c4C(F)(F)F)c(Cl)cc23)C(C)C1?
A: IC50 (second compound 0.00316 µM): > 1 µM; IC50 (second compound 0.01 µM): > 1 µM; IC50 (second compound 0.0316 µM): > 1 µM; IC50 (second compound 0.1 µM): > 1 µM; IC50 (second compound 0.316 µM): > 1 µM; IC50 (second compound 1 µM): > 1 µM; viability, T/C (second compound 0.00316 µM, first compound 0.00316 µM): 121%; viability, T/C (second compound 0.00316 µM, first compound 0.01 µM): 89.3%; viability, T/C [1]: 85.3%; viability, T/C [2]: 85.2%; viability, T/C [3]: 140%; viability, T/C [4]: 102%; viability, T/C (second compound 0.01 µM, first compound 0.00316 µM): 87.2%; viability, T/C (second compound 0.01 µM, first compound 0.01 µM): 126%; viability, T/C [5]: 76.5%; viability, T/C [6]: 120%; viability, T/C [7]: 104%; viability, T/C [8]: 108%; viability, T/C (second compound 0.0316 µM, first compound 0.00316 µM): 101%; viability, T/C (second compound 0.0316 µM, first compound 0.01 µM): 148%; viability, T/C [9]: 88.9%; viability, T/C [10]: 110%; viability, T/C [11]: 93.6%; viability, T/C [12]: 98.4%; viability, T/C (second compound 0.1 µM, first compound 0.00316 µM): 147%; viability, T/C (second compound 0.1 µM, first compound 0.01 µM): 103%; viability, T/C [13]: 115%; viability, T/C [14]: 110%; viability, T/C [15]: 108%; viability, T/C [16]: 112%; viability, T/C (second compound 0.316 µM, first compound 0.00316 µM): 145%; viability, T/C (second compound 0.316 µM, first compound 0.01 µM): 109%; viability, T/C [17]: 80.9%; viability, T/C [18]: 96.4%; viability, T/C [19]: 107%; viability, T/C [20]: 97.6%; viability, T/C (second compound 1 µM, first compound 0.00316 µM): 120%; viability, T/C (second compound 1 µM, first compound 0.01 µM): 92%; viability, T/C [21]: 81.8%; viability, T/C [22]: 75.6%; viability, T/C [23]: 93.5%; viability, T/C [24]: 100%
